Measurements as given in PubChem BioAssay (NCI).
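Cultured in 96-well plates, cells were exposed to test compound for 48 hours across five concentrations. GI50 marks 50% less growth. At the TGI there is no net growth.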

How the values were obtained:
Assay in all cases: DTP human tumour cell line panel, 48 h
EKVX NSCLC = test system: EKVX NSCLC
NCI-H522 lung = test system: NCI-H522 lung
SR leukemia = test system: SR leukemia
NCI-H460 lung = test system: NCI-H460 lung
SNB-75 CNS = test system: SNB-75 CNS
PC-3 prostate = test system: PC-3 prostate
SF-295 CNS = test system: SF-295 CNS
DU-145 prostate = test system: DU-145 prostate
MDA-MB-231 breast = test system: MDA-MB-231 breast
OVCAR-8 ovarian = test system: OVCAR-8 ovarian
UACC-257 melanoma = test system: UACC-257 melanoma
BT-549 breast = test system: BT-549 breast
HT29 colon = test system: HT29 colon
NCI-H226 lung = test system: NCI-H226 lung
SN12C renal = test system: SN12C renal
HOP-92 NSCLC = test system: HOP-92 NSCLC
MCF7 breast = test system: MCF7 breast
UO-31 renal = test system: UO-31 renal
SNB-19 CNS = test system: SNB-19 CNS
RXF 393 renal = test system: RXF 393 renal
MOLT-4 leukemia = test system: MOLT-4 leukemia
HS 578T breast = test system: HS 578T breast
A498 renal = test system: A498 renal
ACHN renal = test system: ACHN renal
OVCAR-4 ovarian = test system: OVCAR-4 ovarian
786-0 renal = test system: 786-0 renal
SK-MEL-5 melanoma = test system: SK-MEL-5 melanoma
SK-MEL-28 melanoma = test system: SK-MEL-28 melanoma
CCRF-CEM leukemia = test system: CCRF-CEM leukemia
SW-620 colon = test system: SW-620 colon
HCC-2998 colon = test system: HCC-2998 colon
UACC-62 melanoma = test system: UACC-62 melanoma
HOP-62 NSCLC = test system: HOP-62 NSCLC
SF-539 CNS = test system: SF-539 CNS
T-47D breast = test system: T-47D breast
M14 melanoma = test system: M14 melanoma
RPMI-8226 leukemia = test system: RPMI-8226 leukemia
MALME-3M melanoma = test system: MALME-3M melanoma
NCI/ADR-RES ovarian = test system: NCI/ADR-RES ovarian
OVCAR-5 ovarian = test system: OVCAR-5 ovarian
TK-10 renal = test system: TK-10 renal
SK-OV-3 ovarian = test system: SK-OV-3 ovarian
A549 NSCLC = test system: A549 NSCLC
HL-60(TB) leukemia = test system: HL-60(TB) leukemia
KM12 colon = test system: KM12 colon
CAKI-1 renal = test system: CAKI-1 renal
SF-268 CNS = test system: SF-268 CNS
U251 CNS = test system: U251 CNS
HCT-116 colon = test system: HCT-116 colon
IGROV1 ovarian = test system: IGROV1 ovarian
COLO 205 colon = test system: COLO 205 colon
MDA-MB-435 = test system: MDA-MB-435
HCT-15 colon = test system: HCT-15 colon
SK-MEL-2 melanoma = test system: SK-MEL-2 melanoma
LOX IMVI melanoma = test system: LOX IMVI melanoma
OVCAR-3 ovarian = test system: OVCAR-3 ovarian
K-562 leukemia = test system: K-562 leukemia

## COc1cc(OC)c(S(N)(=O)=O)cc1C(=O)/C=C/c1ccccc1
EKVX NSCLC
  GI50: 14.2 µM
  TGI: 27.6 µM
NCI-H522 lung
  GI50: 6.56 µM
  TGI: 20.8 µM
SR leukemia
  GI50: 1.73 µM
  TGI: 24.8 µM
NCI-H460 lung
  GI50: 1.95 µM
  TGI: 12.5 µM
SNB-75 CNS
  GI50: 2.08 µM
  TGI: 7.32 µM
PC-3 prostate
  GI50: 5.95 µM
  TGI: 20.6 µM
SF-295 CNS
  GI50: 15.7 µM
  TGI: 30.3 µM
DU-145 prostate
  GI50: 1.88 µM
  TGI: 13.9 µM
MDA-MB-231 breast
  GI50: 11.9 µM
  TGI: 27 µM
OVCAR-8 ovarian
  GI50: 11.3 µM
  TGI: 24.1 µM
UACC-257 melanoma
  GI50: 9.96 µM
  TGI: 21.8 µM
BT-549 breast
  GI50: 2.65 µM
  TGI: 14.1 µM
HT29 colon
  GI50: 4.02 µM
  TGI: 13.8 µM
NCI-H226 lung
  GI50: 10 µM
  TGI: 26.4 µM
SN12C renal
  GI50: 3.49 µM
  TGI: 16.9 µM
HOP-92 NSCLC
  GI50: 2.06 µM
  TGI: 12 µM
MCF7 breast
  GI50: 0.97 µM
  TGI: 14.2 µM
UO-31 renal
  GI50: 4.76 µM
  TGI: 19 µM
SNB-19 CNS
  GI50: 14 µM
  TGI: 28.5 µM
RXF 393 renal
  GI50: 1.9 µM
  TGI: 7.74 µM
MOLT-4 leukemia
  GI50: 10.1 µM
  TGI: 43.1 µM
HS 578T breast
  GI50: 5.89 µM
  TGI: 43.3 µM
A498 renal
  GI50: 16.9 µM
  TGI: 30.7 µM
ACHN renal
  GI50: 7 µM
  TGI: 20.1 µM
OVCAR-4 ovarian
  GI50: 11.8 µM
  TGI: 25.7 µM
786-0 renal
  GI50: 4.82 µM
  TGI: 20.8 µM
SK-MEL-5 melanoma
  GI50: 17.6 µM
  TGI: 32.4 µM
SK-MEL-28 melanoma
  GI50: 12.5 µM
  TGI: 25.3 µM
CCRF-CEM leukemia
  GI50: 3.93 µM
  TGI: 67.2 µM
SW-620 colon
  GI50: 2.68 µM
  TGI: 13.4 µM
HCC-2998 colon
  GI50: 12.5 µM
  TGI: 26.2 µM
UACC-62 melanoma
  GI50: 12.2 µM
  TGI: 26.9 µM
HOP-62 NSCLC
  GI50: 9.51 µM
  TGI: 22.6 µM
SF-539 CNS
  GI50: 2.44 µM
  TGI: 8.98 µM
T-47D breast
  GI50: 2.09 µM
  TGI: 12.1 µM
M14 melanoma
  GI50: 7.51 µM
  TGI: 23.8 µM
RPMI-8226 leukemia
  GI50: 2.98 µM
  TGI: 21.4 µM
MALME-3M melanoma
  GI50: 13.9 µM
  TGI: 29.3 µM
NCI/ADR-RES ovarian
  GI50: 15.5 µM
  TGI: 57.6 µM
OVCAR-5 ovarian
  GI50: 13.2 µM
  TGI: 26.7 µM
TK-10 renal
  GI50: 12.9 µM
  TGI: 25.8 µM
SK-OV-3 ovarian
  GI50: 14.4 µM
  TGI: 27.6 µM
A549 NSCLC
  GI50: 10.5 µM
  TGI: 22.7 µM
HL-60(TB) leukemia
  GI50: 2.27 µM
  TGI: 23.2 µM
KM12 colon
  GI50: 3.31 µM
  TGI: 18.5 µM
CAKI-1 renal
  GI50: 1.86 µM
  TGI: 15.6 µM
SF-268 CNS
  GI50: 5.88 µM
  TGI: 22.9 µM
U251 CNS
  GI50: 2.92 µM
  TGI: 15.2 µM
HCT-116 colon
  GI50: 1.49 µM
  TGI: 14.8 µM
IGROV1 ovarian
  GI50: 9.74 µM
  TGI: 27.6 µM
COLO 205 colon
  GI50: 10.6 µM
  TGI: 24 µM
MDA-MB-435
  GI50: 2.12 µM
  TGI: 12 µM
HCT-15 colon
  GI50: 3.55 µM
  TGI: 20.1 µM
SK-MEL-2 melanoma
  GI50: 12.6 µM
  TGI: 26.5 µM
LOX IMVI melanoma
  GI50: 0.335 µM
  TGI: 12.4 µM
OVCAR-3 ovarian
  GI50: 2.71 µM
  TGI: 13.1 µM
K-562 leukemia
  GI50: 1.5 µM
  TGI: 22.3 µM
